Patent US12280063B2, “Anti-retroviral therapies and reverse transcriptase inhibitors for treatment of Alzheimer's disease” (Sanford Burnham Prebys Medical Discovery Institute, priority 2018, dated 2025)

Tests used:
[1] = system: APP gencDNAs in CHO cells; test: Induction of APP gencDNAs in APP 751-transfected CHO cells treated with hydrogen peroxide, genomic DNA PCR; type: cell-based; settings: AZT 100 μM and ABC 10 μM given together, APP 751 transfection, hydrogen peroxide 0, 5 or 50 μM, FIG. 20B
Protocol: The method is graphically represented in FIG. 20A. CHO cells were serum-deprived for 2 days, followed by addition of reverse transcriptase (RT) inhibitors azidothymidine (AZT, 100 μM) and abacavir (ABC, 10 μM) (Tocris, Minneapolis, Minn.) until the end of the experiment. Medium was changed daily with fresh RT inhibitors. Cells were transfected with APP 751 by GenJet (SignaGen Laboratories, Gaithersburg, Md.) on day 3, then on day 4 cells were treated with 0 μM, 5 μM, or 50 μM of hydrogen peroxide (Fisher Scientific) for 2 hrs. After 1 day, cells were collected and genomic DNA was extracted for PCR analysis.

[2] = system: reverse transcriptase activity in CHO cell lysate; test: In vitro reverse transcriptase activity assay in CHO cell lysate; type: biochemical; settings: four independent experiments, FIG. 20E, read-out: IC50, decrease of reverse transcriptase activity
Protocol: In one example, lysates were prepared in reverse transcriptase disruption buffer and contained Complete™, EDTA-free Protease Inhibitor Cocktail (Sigma-Aldrich, St. Louis, Mo.) and PhosSTOP™ phosphatase inhibitors (Sigma-Aldrich, St. Louis, Mo.). One microgram of extract was used in the reverse transcription step of the assay. Reverse transcription was carried out at 37° C. for 45 min, followed by 15 min at 70° C. The RT product of this first step was assayed in triplicate by quantitative PCR. Levels of reverse transcription activity were determined by the Delta Cq method, compared to the activity in negative controls (water and no nucleotides) that were given Cq scores of 40. 1×10^5 picounits of SuperScript™ II Reverse Transcriptase (ThermoFisher Scientific) were used as a positive control for the assay. Lysates for heat inactivation experiments were incubated for 15 min at 70° C. prior to the reverse transcription step. For inhibitor experiments, lysates were incubated with inhibitor in the presence of all the components of the reaction except for dNTPs. After 10 min at room temperature, dNTPs were added and the reaction was incubated at 37° C. as above. AZT-TP was purchased from TriLink Biotechnologies (San Diego, Calif.).
In another example, the in vitro reverse transcriptase activity assay was conducted with reagents and protocol as shown in Tables 8-11.

Molecule: Nc1nc(NC2CC2)c2ncn([C@H]3C=C[C@@H](CO)C3)c2n1 [abacavir]
- production of APP gencDNAs under nucleoside reverse transcriptase inhibitors [1]: also required to produce gencDNAs

Molecule: azidothymidine triphosphate [AZT-TP]
- IC50 [2]: 18.5 µM
